{"source": "patent US11780868B1", "about": "“Homoleptic metal coordination complexes as antifungal agents” (King Abdulaziz University, priority 2023, dated 2023)", "format_in_all_cases": "cell-based, Candida albicans", "key": {"C. albicans 4251 [1]": {"system": "C. albicans 4251", "experiment": "Cell cycle analysis (Muse cell analyser)", "conditions": "4 h", "method": "(§1) The effect of C1 on the cell cycle of C. albicans 4251 and C. albicans 5112 was determined using Cell Cycle kit MCH100106 in a Guava® Muse® Cell Analyser according to the manufacturer's instructions. The cells of the C. albicans (1×10^6 cells/mL) were exposed to C1 for 4 h at different concentrations (0.5×MIC and 1×MIC). Each sample was rinsed with fresh PBS after exposure, and the pellet was fixed in 1 mL of 70% ice-cold ethanol (Sigma Aldrich Co., USA). The Cell Cycle assay was prepared by mixing the 100 μL of Luminex® Cell Cycle dye and 100 μL of the prewashed fixed cells and incubated in the dark for 30 minutes at room temperature. All samples were analysed by a Guava® Muse® Cell Analyser (Luminex® A DiaSorin Company, USA). During the experiment, both the negative (without treatment) and positive control (10 mM H2O2 treated) were used."}, "C. albicans 5112 [2]": {"system": "C. albicans 5112", "experiment": "Cell cycle analysis (Muse cell analyser)", "conditions": "4 h", "method": "as §1"}, "C. albicans cells": {"system": "C. albicans cells", "experiment": "TUNEL assay for DNA fragmentation", "conditions": "0.5×MIC and 1×MIC, concentration dependent", "method": "To examine the effect of C1 on the induction of cellular apoptosis in C. albicans cells, crucial apoptotic markers were observed. For this purpose, C. albicans 4251 and C. albicans 5112 cells were subjected to protoplast preparation by utilizing a method described previously by Srivastava et al. in 2020 through their research study. Briefly, cells were grown overnight and were exposed for 4 h with different concentrations of C1 (0.5×MIC and 1×MIC) and H2O2 (positive control) whereas, untreated cells were used as a negative control. Later on, the cells were washed and incubated for 10 min at room temperature in protoplast buffer-1 (1M sorbitol, 0.05M tris base, 0.01M MgCl2, 0.03M DTT, pH 7.4). The cells were spun at 1500 rpm for 5 min and the pellet was resuspended in protoplast buffer-2 (1M sorbitol, 0.05M tris base, 0.01M MgCl2, 0.001M DTT, pH 7.4) supplemented with lyticase enzyme (1 μg/mL) and incubated for 1 h at room temperature. […]\nWe further performed an assay to detect the presence of DNA damage in C. albicans, an indicator of late-stage apoptosis. […] The protoplasts were again washed with PBS and all the samples were examined under a fluorescence microscope using Zeiss Laser Scanning Confocal Microscope (LSM) 780 (Carl Zeiss Microscopy, Jena, Germany). […]"}, "C. albicans 4251 [3]": {"system": "C. albicans 4251", "experiment": "Cell count and viability assay (Muse cell analyser)", "conditions": "C. albicans 4251 (Flz susceptible), C1 at MFC, 24 h; untreated 90.9%", "method": "(§2) Quantification of Live/Dead C. albicans cells in response to C1 was carried out. The actual count of viable and dead cells of C. albicans by treatment of C1 was monitored by Cell Count and Viability assay kit. An inoculum (1×10^6 cells/mL) of both Flz sensitive (C. albicans 4251) and resistant (C. albicans 5112) C. albicans strains was prepared followed by treatment with various concentrations of C1 (0.5×MIC, 1×MIC and MFC) for 24 h at 37° C. and 150 rpm. For the negative control, only inoculum treated with 1% DMSO was used and for the positive control, hydrogen peroxide (10 mM) was used in a 1:1 ratio with the inoculum. Following incubation, the cells were then washed in PBS and centrifuged at 4000 rpm for 5 minutes at 4° C. and the final pellet was resuspended in PBS. The Cell Count and Viability assay samples were prepared by mixing 190 μL of Luminex Cell Viability Dilution Buffer and 10 μL of the sample in a 1.5 mL Eppendorf tube and incubated in the dark for 5 min at room temperature. All samples were analysed by a Guava® Muse® Cell Analyser (Luminex A DiaSorin Company, USA)."}, "C. albicans 5112 [4]": {"system": "C. albicans 5112", "experiment": "Cell count and viability assay (Muse cell analyser)", "conditions": "C. albicans 5112 (Flz resistant), C1 at MFC, 24 h; untreated 86.8%", "method": "as §2"}}, "data": [{"smiles": "Brc1ccc([O][Co][O]c2ccc(Br)cc2C=Nc2ccc3c(c2)OCCO3)c(C=Nc2ccc3c(c2)OCCO3)c1", "note": "[Complex C1, [Co(L)2]]", "values": [{"measurement": "cells in G0/G1 phase", "setting": "C. albicans 4251 [1]; C. albicans 4251 (Flz sensitive), 0.5×MIC", "value": 62, "unit": "%"}, {"measurement": "cells in G0/G1 phase", "setting": "C. albicans 4251 [1]; C. albicans 4251, 1×MIC", "value": 96.55, "unit": "%"}, {"measurement": "cells in G0/G1 phase", "setting": "C. albicans 5112 [2]; C. albicans 5112 (Flz resistant), 0.5×MIC", "value": 50.8, "unit": "%"}, {"measurement": "cells in G0/G1 phase", "setting": "C. albicans 5112 [2]; C. albicans 5112, 1×MIC", "value": 94.1, "unit": "%"}, {"measurement": "DNA fragmentation (TUNEL-positive cells)", "setting": "C. albicans cells", "value": "effective at inducing DNA fragmentation"}, {"measurement": "live cells", "setting": "C. albicans 4251 [3]", "value": 4.3, "unit": "%"}, {"measurement": "live cells", "setting": "C. albicans 5112 [4]", "value": 8.4, "unit": "%"}]}]}
